Values quoted from earlier work as cited in US20130281387A1, “Chemosensory Receptor Ligand-Based Therapies” (ELCELYX THERAPEUTICS, INC., priority 2010, published 2013).

Key:
bitter receptor = details: bitter phytonutrients in common plant foods
gut hormones = details: humans, after administration
GLP-1 = details: humans, after administration

| Compound | Taste quality (bitter receptor) | also measured |
| --- | --- | --- |
| C=CCC(=NOS(=O)(=O)O)S[C@@H]1O[C@H](CO)[C@@H](O)[C@H](O)[C@H]1O (stereo in doubt) [Sinigrin] | Bitter | – |
| C[S+]([O-])CCCN=C=S (stereo not shown) [3-Methyl-sulfinylpropyl isothiocyanate] | Acrid mustard oils | – |
| C[S+]([O-])CCCCN=C=S (stereo not shown) [4-Methylsulfinyl butyl isothiocyanate] | Acrid mustard oils | – |
| C=CCN=C=S [Allyl-isothiocyanate] | Acrid mustard oils; | – |
| S=C=NCc1ccccc1 [Benzyl isothiocyanate] | Acrid mustard oils; | – |
| O=c1c(-c2ccc(O)cc2)coc2cc(O[C@@H]3O[C@H](CO)[C@@H](O)[C@H](O)[C@H]3O)ccc12 [Daidzin] | Astringent | – |
| O=C(O[C@@H]1Cc2c(O)cc(O)cc2O[C@@H]1c1ccc(O)c(O)c1)c1cc(O)c(O)c(O)c1 [Epicatechin gallate] | Bitter and astringent | – |
| O=C(O[C@@H]1Cc2c(O)cc(O)cc2O[C@@H]1c1cc(O)c(O)c(O)c1)c1cc(O)c(O)c(O)c1 [Epigallocatechin gallate] | Bitter with sweet | – |
| Oc1cc(O)c2c(c1)O[C@H](c1cc(O)c(O)c(O)c1)[C@H](O)C2 [Epigallocatechin] | Bitter with sweet | – |
| O=c1c(-c2ccc(O)cc2)coc2cc(O)cc(O)c12 [Genistein] | Bitter or astringent | – |
| O=c1c(-c2ccc(O)cc2)coc2cc(O[C@@H]3O[C@H](CO)[C@@H](O)[C@H](O)[C@H]3O)cc(O)c12 [Genistin] | Astringent | – |
| CC(=O)O[C@H]1CC(=O)OC(C)(C)[C@@H]2CC(=O)[C@]3(C)[C@H](CC[C@@]4(C)[C@H](c5ccoc5)OC(=O)[C@H]5O[C@]543)[C@@]12C [Nomilin] | Bitter | – |
| C=C1C[C@@]23CC[C@H]4[C@@](C)(CCC[C@@]4(C)C(=O)O[C@@H]4O[C@H](CO)[C@@H](O)[C@H](O)[C@H]4O)[C@@H]2CC[C@]1(O[C@@H]1O[C@H](CO)[C@@H](O)[C@H](O[C@@H]2O[C@H](CO)[C@@H](O)[C@H](O)[C@H]2O)[C@H]1O[C@@H]1O[C@H](CO)[C@@H](O)[C@H](O)[C@H]1O)C3 [Rebaudioside A] | – | gut hormones in the circulation (gut hormones): no alterations |
| OCCN1C[C@H](O)[C@@H](O)[C@H](O)[C@H]1CO [miglitol] | – | post-prandial GLP-1 levels (GLP-1): increase |

Second part, led by results:

| Taste quality (bitter receptor) | Compound | also measured |
| --- | --- | --- |
| Bitter | O=S(=O)(O)ON=C(Cc1c[nH]c2ccccc12)S[C@@H]1O[C@H](CO)[C@@H](O)[C@H](O)[C@H]1O [Glucobrassicin] | – |
| Bitter | C=CC1CNC(=S)O1 (stereo not shown) [Goitrin, Goitrin 5-vinyl-2-oxazolidine thione] | – |
| Tasteless | CC1(C)O[C@H]2CC(=O)OC[C@]23[C@H]2CC[C@@](C)([C@@H](O[C@@H]4O[C@H](CO)[C@@H](O)[C@H](O)[C@H]4O)c4ccoc4)[C@@]4(O[C@@H]4C(=O)O)[C@]2(C)C(=O)C[C@@H]13 [Limonin glucoside] | – |
| Bitter | CC1(C)O[C@H]2CC(=O)OC[C@]23[C@H]2CC[C@@]4(C)[C@H](c5ccoc5)OC(=O)[C@H]5O[C@]54[C@]2(C)C(=O)C[C@@H]13 [Limonin] | – |
| Bitter | C[C@@H]1O[C@@H](O[C@H]2[C@H](Oc3cc(O)c4c(c3)O[C@H](c3ccc(O)cc3)CC4=O)O[C@H](CO)[C@@H](O)[C@@H]2O)[C@H](O)[C@H](O)[C@H]1O [Naringin] | – |
| Bitter | COc1ccc(-c2cc(=O)c3c(OC)c(OC)c(OC)c(OC)c3o2)cc1OC [Nobiletin] | – |
| Bitter | C=C[C@H](O)CC(=NOS(=O)(=O)O)S[C@@H]1O[C@H](CO)[C@@H](O)[C@H](O)[C@H]1O [Progoitrin] | – |
| Bitter | O=c1c(O)c(-c2ccc(O)c(O)c2)oc2cc(O)cc(O)c12 [Quercetin] | – |
| Bitter | COc1ccc(-c2cc(=O)c3c(OC)c(OC)c(OC)cc3o2)cc1OC [Sinensetin] | – |
| Bitter | COc1ccc(-c2cc(=O)c3c(OC)c(OC)c(OC)c(OC)c3o2)cc1 [Tangeretin] | – |
| Bitter or astringent | O=c1c(-c2ccc(O)cc2)coc2cc(O)ccc12 [daidzein] | – |
